Tests used:
HT29-MTX (E12) cells = assay: Transepithelial transport of GH compounds across E12 cell monolayers (Papp); format: in vitro ADME; details: for Fold increase (Papp of GH A2 + FA-aa relative to GH A2 alone): GH-A2, same procedure: 0.5 mM FA-aa, transport buffer pH 7.4; for effect on permeation / trans-epithelia transport of the growth hormone compounds (in words): GH-A1 and GH-A2; for effect on GH A1 transport (in words): based on fold increase relative to GH A1 alone; for effect on the transportation of GH A2 (in words): fold increase relative to GH A2 alone
Description: HT29-MTX (E12) cells (Pharm Res. 2001; 18(8):1138-45 and Pharm Res. 2007; 24(7):1346-56) were grown in Dulbecco's Modified Eagle Medium supplemented with 10% foetal bovine serum (FBS), 1% penicillin/streptomycin, 1% L-glutamine and 1% non-essential amino acids. For the transport assay, E12 cells were seeded onto tissue culture treated polycarbonate filters in 12-well Transwell® plates (1.13 cm2, 0.4 μm pore size) at a density of 10^5 cells per well. Cells were cultured at 37° C. in an atmosphere of 5% CO2 and the culture media was exchange every second day. Transport experiments were performed after 14-18 days in culture.
The amount of GH compound transported from the donor chamber (apical side) to the receiver chamber (basolateral side) was measured.
Before the experiment, the E12 cells are equilibrated for 60 min with transport buffer on both sides of the epithelium. Buffer is then removed and the experiment initiated by adding a test solution to the donor chamber and a corresponding transport buffer to the receiver chamber. Donor samples ([…]) are taken at 0 min and at the end of the experiment. Receiver samples ([…]) are taken at regular intervals such as every 15 min. The study is usually performed in an atmosphere of 5% CO2-95% O2 at 37° C. on a shaking plate (30 rpm).
Transport of [3H]mannitol, a marker for paracellular transport, may be measured, to verify the integrity of the epithelium, using a scintillation counter.
Before and during the experiment the transepithelial electrical resistance (TEER) of the cell monolayers is monitored. The TEER is measured with EVOM™ Epithelial Voltohmmeter connected to Chopsticks.
The transport study was performed as described in General Method D (Example 1). […] […] The permeation (Papp) of a Growth hormone compound in the presence of different FA-aa's was measured and the fold increase (or decrease) compared to the Growth hormone compound alone was calculated.

[1] = Intra intestinal (mid-jejunum) administration of GH compounds with FA-aa to rats, AUC enhancement; format: in vivo, Sprague-Dawley rats; details: SBTI 2% with C16-sarcosinate 30 mg/ml, FIGS. 5, 6 and 7
Description: Each composition is prepared as a 100 pl dosage injected into mid-jejenum of fully anaesthetized overnight fasted Sprague-Dawley rats (n=6, 9 or 18).
At each sampling time 0.25 ml blood is drawn from the tail vein using a 25 G needle. Sampling times are: pre-dose and 0.25, 0.5, 1, 2, 4 and 6 hours after dosing. The blood is sampled into a EDTA coated test tube and stored on ice until centrifugation at 1200×G for 10 min at 4° C. Plasma is transferred to a Micronic tube and stored at −20° C. until analysis.
The limit of detection of the assay was 0.2 nM.
The samples were analysed using a Luminescence Oxygen Channeling Immunoassay (LOCI), a homogenous bead based assay. […] One of the bead reagents is a generic reagent (donor beads) and is coated with streptavidin and contains a photosensitive dye. The second bead reagent (acceptor beads) is coated with an antibody making up the sandwich. […] Illumination of the complex releases singlet oxygen from the donor beads which channels into the acceptor beads and triggers chemiluminescence which is measured in the EnVision plate reader. […]

[2] = Pharmacokinetics (T½) of growth hormone compounds in rats after i.v./s.c. single dose; format: in vivo, Sprague Dawley rats; details: assay of Example 1.C (i.v. or s.c.)
Description: The pharmacokinetic of the compounds of the examples is investigated in male Sprague Dawley rats after intravenous (i.v.) and subcutaneous (s.c.) single dose administration.
Test compounds are diluted to a final concentration of 1 mg/mL in a dilution buffer consisting of: Glycine 20 mg/mL, mannitol 2 mg/mL, NaHCO3 2.5 mg/mL, pH adjusted to 8.2.
The test compounds are studied in male Sprague Dawley rats weighing 250 g. The test compounds are administered as a single injection either i.v. in the tail vein or s.c. in the neck with a 25 G needle at a predetermined dose such as of 15 nmol/rat in volume of 0.1 ml (concentration 150 nmol/ml) or 60 nmol/kg body weight. […]
At each sampling time 0.25 ml blood is drawn from the tail vein using a 25 G needle. The blood is sampled into a EDTA coated test tube and stored on ice until centrifugation at 1200×G for 10 min at 4° C. […]
Test compound concentrations are determined by a sandwich ELISA using a guinea pig anti-hGH polyclonal antibody as catcher, and biotinylated hGH binding-protein (soluble part of human GH receptor) as detector. […]
A non-compartmental pharmacokinetic analysis is performed on mean concentration-time profiles of each test compound using WinNonlin Professional (Pharsight Inc., Mountain View, Calif., USA). The pharmacokinetic parameter estimates of terminal half-life (t1/2) and mean residence time (MRT) are calculated.

Compound: CCCCCCCCCC(=O)N(C)CC(=O)O [C10-Sarc, N-decanoyl-L-sarcosine]
- Fold increase (Papp of GH A2 + FA-aa relative to GH A2 alone) (HT29-MTX (E12) cells): 0.7 fold

Compound: CCCCCCCCCCCC(=O)NCC(=O)O [C12-Gly, N-dodecanoyl-L-glycine]
- Fold increase (Papp of GH A2 + FA-aa relative to GH A2 alone) (HT29-MTX (E12) cells): 3.4 fold

Compound: CCCCCCCCCCCCCCCC(=O)NC(CC(=O)O)C(=O)O (stereo not drawn) [C16-(D)-Asp]
- Fold increase (Papp of GH A2 + FA-aa relative to GH A2 alone) (HT29-MTX (E12) cells): 1.8 fold

Compound: CCCCCCCCCCCCCCCC(=O)NC(CCC(=O)O)C(=O)O [C16-D-Glu]
- Fold increase (Papp of GH A2 + FA-aa relative to GH A2 alone) (HT29-MTX (E12) cells): 4.1 fold

Compound: CCCCCCCCCCCCCCCC(=O)N[C@@H](CCC(N)=O)C(=O)[O-].[Na+] [C16-Gln, sodium (2S)-5-amino-5-oxo-2-(hexadecanoylamino)pentanoate]
- effect on permeation / trans-epithelia transport of the growth hormone compounds (in words) (HT29-MTX (E12) cells): superior effect
- effect on GH A1 transport (in words) (HT29-MTX (E12) cells): biggest effect
- effect on the transportation of GH A2 (in words) (HT29-MTX (E12) cells): biggest effect

Compound: CCCCCCCCCCCCCCCC(=O)N[C@@H](CCC(=O)[O-])C(=O)[O-].[Na+].[Na+] [C16-Glu, disodium (2S)-2-(hexadecanoylamino)pentanedioate]
- effect on permeation / trans-epithelia transport of the growth hormone compounds (in words) (HT29-MTX (E12) cells): superior effect
- effect on GH A1 transport (in words) (HT29-MTX (E12) cells): biggest effect
- effect on the transportation of GH A2 (in words) (HT29-MTX (E12) cells): biggest effect

Compound: CCCCCCCCCCCCCCCC(=O)N(C)CC(=O)[O-].[Na+] [C16-Sarc, sodium 2-[hexadecanoyl(methyl)amino]acetate]
- effect of protease inhibitor on GH absorption enhancing effect of FA-aa (in words) [1]: significantly improved by the presence of an enzyme inhibitor

Compound: wt human growth hormone: human growth hormone identified by SEQ ID NO 1
- T ½ [2]: 12 to 14 min

Reference: patent publication US20150250882A1, “Fatty Acid Acylated Amino Acids for Growth Hormone Delivery” (Novo Nordisk Health Care AG, priority 2012, published 2015)
